The values that follow come from patent US11746374B2, “Methods and platform for screening and selecting metabolites and their receptors” (BOARD OF REGENTS, THE UNIVERSITY OF TEXAS SYSTEM, priority 2017, dated 2023).

For orientation: EC50 means the concentration needed to bring the measured effect to its halfway point. A word on the IC50: it is the point on the concentration scale where inhibition reaches its midpoint.

Assay [1] has as its target T1, P2X1 (Homo sapiens, UniProt P51575).
T1 construct: expressed in transfected cells; host or cells: Saccharomyces cerevisiae BY4741 dCne1p, genome-integrated under the GAL1 promoter
T1 sequence (P51575 1-399): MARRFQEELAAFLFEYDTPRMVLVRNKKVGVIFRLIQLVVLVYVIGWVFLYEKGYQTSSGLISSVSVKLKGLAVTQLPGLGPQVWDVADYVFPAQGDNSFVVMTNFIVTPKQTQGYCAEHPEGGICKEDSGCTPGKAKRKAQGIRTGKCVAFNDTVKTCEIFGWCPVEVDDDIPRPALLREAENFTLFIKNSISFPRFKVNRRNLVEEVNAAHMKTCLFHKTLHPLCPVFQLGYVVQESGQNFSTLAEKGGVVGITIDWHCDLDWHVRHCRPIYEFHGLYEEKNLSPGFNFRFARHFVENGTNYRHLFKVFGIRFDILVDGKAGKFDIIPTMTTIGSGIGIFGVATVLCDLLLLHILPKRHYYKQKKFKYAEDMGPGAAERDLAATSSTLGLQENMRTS
Briefly: Aequorin functional assay of P2X receptors in yeast. Format: cell-based. The settings on record: upon ATP addition. Here is the method:
(§1) Ion channel activity in yeast was tested with the purinergic P2X ion channel family. Channel gating was assessed by an aequorin assay in which aequorin is co-expressed with the receptor and, upon addition of the prosthetic group coelenterazine and addition of calcium, blue light is released. The aequorin-based functional assay was performed in all seven P2X receptors (FIG. 8). P2X1-7 were integrated into the chromosome to mitigate copy number variation between clones and were induced with galactose with the pGal1 promoter. […] Among those receptors that didn't work, it was suspected that improvements in expression and trafficking can improve functionality. For example, by modulating trafficking domains within the P2X4 receptor, aggregation was reduced in vesicles (FIG. 9), and it is believed that this tactic can be employed in other receptors. […] This can be because P2X2 has the slowest desensitization rates of the family (and is often considered “non-desensitizing”) and has the highest unitary conductance (30 pS).
(§2) BY4741ΔCne1p cells were transformed with vectors containing P2X variants. Transformants were validated and made competent for a subsequent transformation with a vector containing aequorin under the expression of the constitutive PGK2 promoter. Overnight cells were induced with 2% […] for 20 hours. Following receptor expression, cells were collected by centrifugation and concentrated to 500 μL. The concentrated cells were then incubated with 5 μL of 1 mg/mL coelenterazine for 30 minutes at room temperature. Washed cells were then resuspended in softening buffer (1 M Sorbitol, 25 mM EDTA, 50 mM DTT), followed by washes in 1 M sorbitol and water. […] Using an F500, 25 μL of cells were monitored for luminescence for 5 seconds. Upon addition of ligand or buffer (100 μL), cells were monitored for luminescence for varying times. […] Luminescence was monitored before and after the addition of 100 μL of 10 μM ATP. Areas under the curve were calculated and plotted against a negative control to determine the IC50.

The target in assay [2] is T2, P2X4 (Homo sapiens, UniProt Q99571).
T2 construct: expressed in transfected cells; host or cells: Saccharomyces cerevisiae BY4741 dCne1p, single-copy integration, GAL1 promoter
T2 sequence (Q99571 with tags, fused parts or gaps): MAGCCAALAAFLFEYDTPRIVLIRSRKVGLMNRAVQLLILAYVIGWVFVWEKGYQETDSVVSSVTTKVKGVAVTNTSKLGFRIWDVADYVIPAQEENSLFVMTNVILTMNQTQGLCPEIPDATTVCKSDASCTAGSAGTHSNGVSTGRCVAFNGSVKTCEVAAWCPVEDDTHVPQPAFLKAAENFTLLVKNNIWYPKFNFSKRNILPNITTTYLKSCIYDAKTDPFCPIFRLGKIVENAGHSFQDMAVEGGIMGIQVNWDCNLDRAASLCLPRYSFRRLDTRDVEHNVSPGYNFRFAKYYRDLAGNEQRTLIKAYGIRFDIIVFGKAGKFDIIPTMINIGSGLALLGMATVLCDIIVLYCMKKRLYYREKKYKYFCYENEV
Described as above. Format: cell-based. The settings on record: upon ATP addition. Here is the method: as §1, §2

The target of assay [3] is T3, P2X7 (Homo sapiens, UniProt Q99572).
T3 construct: expressed in transfected cells; host or cells: Saccharomyces cerevisiae BY4741 dCne1p, genome-integrated under the GAL1 promoter
T3 sequence (Q99572 1-595): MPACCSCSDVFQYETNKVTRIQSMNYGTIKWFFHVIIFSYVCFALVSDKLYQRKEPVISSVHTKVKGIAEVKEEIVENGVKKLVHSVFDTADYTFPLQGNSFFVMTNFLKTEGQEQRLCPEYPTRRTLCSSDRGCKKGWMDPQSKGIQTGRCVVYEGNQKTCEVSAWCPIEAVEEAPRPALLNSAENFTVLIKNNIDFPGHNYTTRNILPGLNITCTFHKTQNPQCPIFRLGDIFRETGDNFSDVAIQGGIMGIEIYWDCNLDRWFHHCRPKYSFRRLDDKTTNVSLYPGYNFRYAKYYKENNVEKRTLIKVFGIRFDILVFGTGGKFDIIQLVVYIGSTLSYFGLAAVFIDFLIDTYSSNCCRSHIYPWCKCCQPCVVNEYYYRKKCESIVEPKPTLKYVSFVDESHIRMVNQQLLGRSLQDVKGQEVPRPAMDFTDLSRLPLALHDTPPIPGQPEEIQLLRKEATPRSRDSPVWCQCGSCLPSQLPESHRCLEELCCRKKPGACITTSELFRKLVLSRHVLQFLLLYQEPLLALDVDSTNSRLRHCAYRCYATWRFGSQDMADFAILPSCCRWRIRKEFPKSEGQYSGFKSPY
The description is as above. In kind it is cell-based. The settings on record: upon ATP addition. Here is the method:
as §1, §2

Assay [4] addresses T4, P2X2 (Homo sapiens, UniProt Q9UBL9).
T4 sequence (Q9UBL9 1-471): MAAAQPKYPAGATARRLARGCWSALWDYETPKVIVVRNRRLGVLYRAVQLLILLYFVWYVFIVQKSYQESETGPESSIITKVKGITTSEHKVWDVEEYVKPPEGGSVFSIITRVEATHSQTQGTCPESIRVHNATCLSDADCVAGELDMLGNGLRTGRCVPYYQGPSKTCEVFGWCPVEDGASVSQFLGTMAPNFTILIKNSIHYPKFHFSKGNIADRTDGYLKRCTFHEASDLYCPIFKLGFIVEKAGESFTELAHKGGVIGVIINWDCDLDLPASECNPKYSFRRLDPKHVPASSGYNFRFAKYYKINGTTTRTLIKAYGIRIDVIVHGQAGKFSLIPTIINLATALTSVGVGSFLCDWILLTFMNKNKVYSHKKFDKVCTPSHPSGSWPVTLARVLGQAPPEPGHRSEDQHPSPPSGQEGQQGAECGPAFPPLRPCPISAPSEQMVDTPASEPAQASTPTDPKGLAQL
Briefly: Plate-based aequorin luminescence assay of P2X2 expressed in yeast. In kind it is cell-based. More on the design: expressed in transfected cells; host or cells: Saccharomyces cerevisiae BY4741 dCne1p, genome-integrated under the GAL1 promoter, aequorin on a high-copy plasmid. Here is the method: as §1
To determine whether or not this truncated channel gated in yeast, an aequorin-based functional assay was used. Here aequorin, a bioluminescent protein, emits a photon upon binding calcium. This is done with the aid of coelenterazine, which must be added exogenously to yeast. The reaction is not catalytic, and the off-rate of calcium is too slow to observe on the timescales utilized in our assays. To optimize conditions for expression of both the receptor and reporter, a combination of integration, low-copy, and high-copy vectors was used. At this point, it was only possible to produce a signal upon addition of ATP, the native ligand, when both the receptor and reporter were expressed on high-copy plasmids (FIG. 56).
BY4741ΔCne1p cells were transformed with vectors containing P2X variants. Transformants were validated and made competent for a subsequent transformation with a vector containing aequorin under the expression of the constitutive PGK2 promoter. Overnight cells were induced with 2% […] for 20 hours. Following receptor expression, cells were collected by centrifugation and concentrated to 500 μL. The concentrated cells were then incubated with 5 μL of 1 mg/mL coelenterazine for 30 minutes at room temperature. Washed cells were then resuspended in softening buffer (1 M Sorbitol, 25 mM EDTA, 50 mM DTT), followed by washes in 1 M sorbitol and water. Cells were then resuspended in 50 mM MES/Tris pH 6.5 and aliquoted into a 96-well plate. Using an F500, 25 μL of cells were monitored for luminescence for 5 seconds. Upon addition of ligand or buffer (100 μL), cells were monitored for luminescence for varying times. Cell lysis was performed with the addition of 100 μL Tween20. For inhibition, varying concentrations of suramin were incubated with cells. Luminescence was monitored before and after the addition of 100 μL of 10 μM ATP. Areas under the curve were calculated and plotted against a negative control to determine the IC50.

Assay [5] deals with T5, human 5HT1A (Homo sapiens, UniProt P08908).
T5 construct: expressed in transfected cells; host or cells: Saccharomyces cerevisiae JG05-2.0 (2 micron plasmid, pTDH3) / JG05-1.0 (single-copy integration at HO)
T5 sequence (P08908 1-422): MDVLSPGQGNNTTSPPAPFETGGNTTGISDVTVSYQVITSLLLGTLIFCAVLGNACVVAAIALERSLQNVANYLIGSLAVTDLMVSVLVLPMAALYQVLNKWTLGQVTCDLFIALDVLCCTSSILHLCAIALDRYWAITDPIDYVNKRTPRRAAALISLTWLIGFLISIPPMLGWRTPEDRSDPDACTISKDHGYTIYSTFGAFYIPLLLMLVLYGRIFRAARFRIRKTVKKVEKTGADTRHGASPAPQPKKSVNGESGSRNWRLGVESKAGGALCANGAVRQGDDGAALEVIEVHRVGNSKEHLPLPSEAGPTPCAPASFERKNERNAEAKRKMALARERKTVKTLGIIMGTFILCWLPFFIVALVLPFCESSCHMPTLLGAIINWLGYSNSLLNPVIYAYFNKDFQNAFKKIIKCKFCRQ
Briefly: GPCR-CPR proof of concept, emulsion PCR amplification in yeast. Format: cell-based. The settings on record: cells treated with 250 μM serotonin vs negative control; single-copy integration at HO site. An excerpt:
Having shown functionality of the 5HT1A receptor, CPR strains (JG05-1.0) were constructed using this receptor. […] However, background was mitigated by increasing the pH of the CPR master mix to pH 8.8 and lowering the number of cycles from 35 to 20 during the emulsion PCR. […] Further optimization of expression parameters can greatly increase the signal:noise. For example, a much more pronounced difference can be seen when expressing the receptor from a high-copy plasmid. The experiments outlined here were also performed with cells growing with the ligand for 18 hours. By concentrating the cells and limiting the time of induction, a decrease in background signal can be seen.
Control cells were not induced. Cells (3 mL total) were collected after 18 hours of induction and spun in a tabletop centrifuge at 3,000×g for 5 minutes. The supernatant was discarded and the cell pellet was washed in water and then resuspended in 1 M sorbitol, 25 mM EDTA, 50 mM DTI′. Cells were collected again and washed in 1 M sorbitol. After another wash with water, cells were resuspended in 500 μL PCR mastermix (pH 8.0 or pH 8.8). The resuspended cells were placed into a 2 mL tube with a 1 mL rubber syringe plunger and 1200 μL of oil mix (876 Tegosoft DEC, 84 Gransurf W9, and 240 μL light mineral oil (Sigma-Aldrich)). […]

Assay [6] concerns the target T4, P2X2. The conditions noted are these: Baqi et al., 2011; Lambrecht et al., 2002; read-out: range of reported IC50 values; cited from earlier work.

Like-named read-outs stand apart in the source and are kept apart here.

`Nc1ncnc2c1ncn2[C@@H]1O[C@H](COP(=O)(O)OP(=O)(O)OP(=O)(O)O)[C@@H](O)[C@H]1O` [ATP]: the “ligand-dependent gating, calcium influx” value in assay [1], in assay [2] and in assay [3] was “showed an ATP-dependent calcium influx” in each case. For the same molecule, in assay [4] (aequorin luminescence), the “agonism / gating of P2X2” value is “showed an ATP-dependent calcium influx”. Besides, the EC50 in assay [4] (dose-response, area under luminescence curve) was 6.7 ± 1.5 µM.

On to `NCCc1c[nH]c2ccc(O)cc12` [serotonin], for which the “increase in signal of CPR amplification product” value in assay [5] is 20 fold.

As to `Cc1ccc(C(=O)Nc2ccc(S(=O)(=O)O)c3cc(S(=O)(=O)O)cc(S(=O)(=O)O)c23)cc1NC(=O)c1cccc(NC(=O)Nc2cccc(C(=O)Nc3cc(C(=O)Nc4ccc(S(=O)(=O)O)c5cc(S(=O)(=O)O)cc(S(=O)(=O)O)c45)ccc3C)c2)c1` [suramin], the IC50 in assay [6] is 2 to 48 µM; in assay [4] (cells equilibrated with suramin, then 10 μM ATP), 31.6 ± 1.4 µM.
